Reference: patent US8183388B2, “Androgen receptor modulator and uses thereof” (Eli Lilly and Company, priority 2009, dated 2012)

Key:
[1] = molecular target: T1, human AR (androgen receptor) (Homo sapiens, UniProt P10275); assay: Steroid hormone nuclear receptor binding assay, AR; conditions: HEK293 lysate overexpressing human AR, [3H]-methyltrienolone
T1 construct: expressed in transfected cells; host or cells: HEK293 (lysate, 293-AR)
T1 sequence (P10275 1-920): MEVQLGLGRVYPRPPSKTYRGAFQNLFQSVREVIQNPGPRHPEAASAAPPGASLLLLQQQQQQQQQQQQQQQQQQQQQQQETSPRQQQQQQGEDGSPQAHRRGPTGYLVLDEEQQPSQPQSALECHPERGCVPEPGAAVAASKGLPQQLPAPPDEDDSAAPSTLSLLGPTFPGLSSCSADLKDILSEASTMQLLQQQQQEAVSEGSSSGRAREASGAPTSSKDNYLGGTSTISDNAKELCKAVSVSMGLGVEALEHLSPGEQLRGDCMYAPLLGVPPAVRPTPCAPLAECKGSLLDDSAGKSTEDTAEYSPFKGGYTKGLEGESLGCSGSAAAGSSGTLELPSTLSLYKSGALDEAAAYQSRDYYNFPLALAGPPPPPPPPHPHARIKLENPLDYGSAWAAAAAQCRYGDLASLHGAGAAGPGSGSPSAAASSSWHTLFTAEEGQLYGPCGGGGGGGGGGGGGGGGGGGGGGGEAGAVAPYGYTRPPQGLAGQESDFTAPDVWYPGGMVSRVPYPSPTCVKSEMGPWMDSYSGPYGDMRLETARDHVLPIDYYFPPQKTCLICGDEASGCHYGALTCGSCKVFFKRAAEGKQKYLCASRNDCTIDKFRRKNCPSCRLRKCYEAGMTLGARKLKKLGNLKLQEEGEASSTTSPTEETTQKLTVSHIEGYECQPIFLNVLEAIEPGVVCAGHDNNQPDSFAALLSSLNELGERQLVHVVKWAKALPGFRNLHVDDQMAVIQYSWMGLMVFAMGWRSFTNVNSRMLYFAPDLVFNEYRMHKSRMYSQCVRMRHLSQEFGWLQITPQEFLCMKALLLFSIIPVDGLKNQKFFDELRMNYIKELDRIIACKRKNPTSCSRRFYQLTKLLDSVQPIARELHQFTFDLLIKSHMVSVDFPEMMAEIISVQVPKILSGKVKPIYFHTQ
Method: Cell lysates from human embryonic kidney HEK293 cells overexpressing human MR (mineralocorticoid receptor), GR (glucocorticoid receptor), AR (androgen receptor), or PR (progesterone receptor) are used for receptor-ligand competition binding assays to determine Ki values. Typical procedures are provided below
Briefly, steroid receptor competition binding assays are run in a buffer containing 20 mM HEPES buffer (pH=7.6), 0.2 mM EDTA, 75 mM NaCl, 1.5 mM MgCl2, 20% glycerol, 20 mM sodium molybdate, 0.2 mM DTT (dithiothreitol), 20 μg/mL aprotinin and 20 μg/mL leupeptin (assay buffer). […] Assays are typically run in 96-well format. Competing test compounds are added at various concentrations ranging from about 0.01 nM to 10 μM. Non-specific binding is determined in the presence of 500 nM aldosterone for MR binding, 500 nM dexamethasone for GR binding, or 500 nM methyltrienolone for AR and PR binding. The binding reactions (140 μL) are incubated overnight at 4° C., then 70 μL of cold charcoal-dextran buffer (containing per 50 mL of assay buffer, 0.75 g of charcoal and 0.25 g of dextran) is added to each reaction. […] After an incubation of 2 hours, plates are read in a Wallac Microbeta counter.
The Kd for [^3H]-aldosterone for MR binding, [^3H]-dexamethasone for GR binding, [^3H]-methyltrienolone for AR binding, or [^3H]-methyltrienolone for PR binding, is determined by saturation binding. […]

[2] = molecular target: T2, human androgen receptor (AR) (Homo sapiens, UniProt P10275); assay: C2C12 AR/ARE reporter assay; assay type: cell-based; conditions: mouse myoblast C2C12 cells, agonist mode, geometric mean of n=7; SD of about 0.08
T2 construct: expressed in transfected cells; host or cells: mouse myoblast C2C12 cells
T2 sequence (P10275 1-920): T1 sequence (P10275 1-920)
Method: As an indicator of agonist activity in muscle tissue, the C2C12 AR/ARE reporter assay is performed. Briefly, mouse myoblast C2C12 cells are co-transfected using Fugene™ reagent. A reporter plasmid containing a GRE/ARE (glucocorticoid response element/androgen response element) and TK promoter upstream of the luciferase reporter cDNA, is transfected with a plasmid constitutively expressing human androgen receptor (AR) using viral CMV promoter. Cells are transfected in T150 cm^2 flasks in DMEM media with 4% charcoal stripped Fetal Bovine Serum (FBS). After a 5 hour incubation, transfected cells are trypsinized, plated in 96 well dishes in DMEM media containing 4% charcoal-stripped FBS, incubated for 2 h and then exposed to various concentrations of test compounds ranging from about 0.01 nM to 10 μM. […] Data is fit to a 4 parameter-fit logistics to determine EC50 values. The % efficacy is determined versus maximum stimulation obtained with 10 nM methyltrienolone.

SMILES: CC(C)OC(=O)N[C@H]1Cc2c(n(C[C@H]3OCC[C@@H]3O)c3ccc(C#N)cc23)C1 [compound of Formula (I), [(S)-7-Cyano-4-((2R,3S)-3-hydroxytetrahydrofuran-2-ylmethyl)-1,2,3,4-tetrahydrocyclopenta[b]indol-2-yl]-carbamic acid isopropyl ester]
- Ki [1]: ~10 nM
- EC50 [2]: ~0.2 nM
